The target of one assay is T1, FLT3 (Homo sapiens, UniProt P36888).
T1 construct: purchased Ambit Biosciences
The assay can be described thus: In vitro kinase inhibition profile (Ambit Biosciences). It is filed as binding. The conditions noted are these: reported as percent control, lower numbers indicate stronger activities. How it is done: (§1) Up to 518 different kinases have been identified in humans. To determine the scope of inhibitory effects of a representative compound of Formula (I) on known kinases, Compound 82 was tested against 104 commercially available kinases (Ambit Biosciences™). 104 kinases included ABL1(E255K)-phosphorylated, ABL1(T315I)-phosphorylated, ABL1-phosphorylated, ACVR1B, ADCK3, AKT1, AKT2, ALK, AURKA, AURKB, AXL, BMPR2, BRAF, BRAF(V600E), BTK, CDK11, CDK2, CDK3, CDK7, CDK9, CHEK1, CSF1R, CSNK1D, CSNK1G2, DCAMKL1, DYRK1B, EGFR, EGFR(L858R), EPHA2, ERBB2, ERBB4, ERK1, FAK, FGFR2, FGFR3, FLT1, FLT3, FLT4, GSK3B, IGF1R, IKK-α, IKK-β, INSR, JAK2(JH1domain-catalytic), JAK3 (JH1 domain-catalytic), JNK 1, JNK2, JNK3, KIT, KIT(D816V), KIT(V559D,T6701), LKB1, LRRK2, LRRK2(G2019S), MAP3K4, MAPKAPK2, MARKS, MEK1, MEK2, MET, MKNK1, MKNK2, MLK1, MTOR, p38-alpha, p38-beta, PAK1, PAK2, PAK-4, PCTK1, PDGFRA, PDGFRB, PDPK1, PIK3C2B, PIK3CA, PIK3CG, PIM1, PIM2, PIM3, PKAC-alpha, PLK1, PLK3, PLK4, PRKCE, PYK2, RAF1, RET, R10K2, ROCK2, RSK2, SNARK, SRC, SRPK3, SYK, TAK1, TGFBR1, TIE2, TRKA, TSSK1B, TYK2(JH1domain-catalytic), ULK2, VEGFR2, YANK3 and ZAP70.
(§2) Inhibition activity of Compound 82 was reported as percent control where lower numbers indicate stronger activities.

In the next assay the target is T2, ZAP70 (Homo sapiens, UniProt P43403).
T2 construct: Purified full-length human SYK, ZAP70, PIM1, PYK2; purchased Carna Biosciences
T2 sequence (P43403 1-619): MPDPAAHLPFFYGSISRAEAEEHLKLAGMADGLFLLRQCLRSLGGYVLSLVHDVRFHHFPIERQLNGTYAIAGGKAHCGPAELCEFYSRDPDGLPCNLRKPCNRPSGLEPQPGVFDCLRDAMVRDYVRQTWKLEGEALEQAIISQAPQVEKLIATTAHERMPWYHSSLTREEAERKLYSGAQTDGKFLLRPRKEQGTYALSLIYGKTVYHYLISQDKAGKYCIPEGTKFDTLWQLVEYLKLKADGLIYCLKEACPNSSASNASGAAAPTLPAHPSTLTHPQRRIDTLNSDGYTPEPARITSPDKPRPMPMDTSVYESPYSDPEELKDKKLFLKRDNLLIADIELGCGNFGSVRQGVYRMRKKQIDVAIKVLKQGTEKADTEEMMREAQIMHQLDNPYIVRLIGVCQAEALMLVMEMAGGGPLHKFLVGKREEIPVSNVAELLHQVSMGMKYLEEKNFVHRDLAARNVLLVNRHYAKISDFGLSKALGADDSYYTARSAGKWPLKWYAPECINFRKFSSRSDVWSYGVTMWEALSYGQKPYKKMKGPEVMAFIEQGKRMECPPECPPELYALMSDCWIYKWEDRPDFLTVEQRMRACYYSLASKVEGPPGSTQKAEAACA
Described as above. The conditions noted are these: reported as percent control, lower numbers indicate stronger activities. The assay is classed as binding. How it is done:
as §1, §2

In a further assay the target is T3, KIT(D816V) (Homo sapiens, UniProt P10721, D816V).
T3 construct: purchased Ambit Biosciences
T3 sequence (P10721 26-976 D816V): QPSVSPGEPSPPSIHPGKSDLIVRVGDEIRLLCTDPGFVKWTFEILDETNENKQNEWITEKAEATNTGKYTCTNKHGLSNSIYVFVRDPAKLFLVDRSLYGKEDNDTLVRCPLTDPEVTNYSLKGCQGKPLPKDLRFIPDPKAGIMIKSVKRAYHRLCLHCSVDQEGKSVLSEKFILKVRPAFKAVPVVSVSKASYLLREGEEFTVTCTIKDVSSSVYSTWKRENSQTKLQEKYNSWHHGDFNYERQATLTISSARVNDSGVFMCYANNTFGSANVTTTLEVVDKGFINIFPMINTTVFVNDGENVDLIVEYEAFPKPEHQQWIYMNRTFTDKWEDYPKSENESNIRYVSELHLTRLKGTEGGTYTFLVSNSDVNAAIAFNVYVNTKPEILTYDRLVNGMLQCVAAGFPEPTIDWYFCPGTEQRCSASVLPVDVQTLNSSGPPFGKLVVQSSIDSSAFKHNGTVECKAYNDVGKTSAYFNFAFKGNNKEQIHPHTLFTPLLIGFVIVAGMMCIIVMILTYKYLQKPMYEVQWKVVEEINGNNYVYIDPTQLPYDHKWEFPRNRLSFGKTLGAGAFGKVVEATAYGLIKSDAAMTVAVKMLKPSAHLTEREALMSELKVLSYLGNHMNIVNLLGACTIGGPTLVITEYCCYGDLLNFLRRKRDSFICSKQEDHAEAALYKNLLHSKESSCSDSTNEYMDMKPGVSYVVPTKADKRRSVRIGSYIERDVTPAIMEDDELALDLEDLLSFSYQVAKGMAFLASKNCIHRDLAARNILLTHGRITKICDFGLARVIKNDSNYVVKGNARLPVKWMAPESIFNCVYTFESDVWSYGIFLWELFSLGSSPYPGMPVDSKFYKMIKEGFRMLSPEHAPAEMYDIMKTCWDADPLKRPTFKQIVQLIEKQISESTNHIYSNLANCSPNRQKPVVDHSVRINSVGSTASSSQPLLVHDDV
Described as above. It is filed as binding. The settings on record: reported as percent control, lower numbers indicate stronger activities. The procedure: as §1, §2

A further assay deals with T4, ABL1(T315I) (Homo sapiens, UniProt P00519, T315I).
T4 construct: purchased Ambit Biosciences
Described as above. It is filed as binding. The settings on record: reported as percent control, lower numbers indicate stronger activities. How it is done:
as §1, §2

The target of a further assay is T5, AURKB (Homo sapiens, UniProt Q96GD4).
T5 construct: purchased Ambit Biosciences
T5 sequence (Q96GD4 whole entry): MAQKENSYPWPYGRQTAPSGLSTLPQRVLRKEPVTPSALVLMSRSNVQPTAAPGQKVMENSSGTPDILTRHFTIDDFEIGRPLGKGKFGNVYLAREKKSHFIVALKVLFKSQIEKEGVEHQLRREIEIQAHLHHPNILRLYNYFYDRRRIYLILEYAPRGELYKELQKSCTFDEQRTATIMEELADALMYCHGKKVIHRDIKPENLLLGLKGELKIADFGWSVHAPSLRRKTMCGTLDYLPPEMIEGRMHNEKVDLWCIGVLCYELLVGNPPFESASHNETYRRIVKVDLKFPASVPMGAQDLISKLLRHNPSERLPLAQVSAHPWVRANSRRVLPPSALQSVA
Described as above. The assay is classed as binding. The conditions noted are these: reported as percent control, lower numbers indicate stronger activities. How it is done:
as §1, §2

In assay [1] the test system is TNF-α release in THP-1 cells. The assay can be described thus: SYK independent TNF-α release assay (LPS stimulation). The assay is classed as cell-based. The conditions noted are these: Homo sapiens, 18-hour incubation. The procedure: Compounds of the present invention are tested for their effects on TNF-α release in human acute monocytic leukimia cell line (THP-1) to illustrate potential efficacy at the cellular level. TNF-α is a cytokine involved in systemic inflammation and is a member of a group of cytokines that stimulate the acute phase reaction. The primary role of TNF-α is in the regulation of immune cells. TNF-α is known to induce apoptotic cell death and inflammation and to inhibit early tumorigenesis and viral replication. Dysregulation and, in particular, overproduction of TNF-α have been implicated in a variety of human diseases, autoimmune disease, inflammation, arthritis and cancer.
Production or release of TNF-α is controlled by type of stimulus to which the cell responds. SYK activity is involved in mediating TNF-α production. When stimulated by IgG, cells increase TNF-α production in a SYK dependent manner (i.e., the SYK dependent pathway). However, when stimulated by lipopolysaccharide (LPS), they produce TNF-α in a SYK independent manner.
For SYK independent TNF-α release assay (i.e., via lipopolysaccharide (LPS)-stimulation), THP-1 cells derived from human monocytic cells were obtained from the American Type Culture Collection (ATCC, Manassas, Va.). This cell line was maintained with an RPMI medium (GIBCO™) containing 10 fetal bovine serum (FBS, GIBCO™) and 0.05 mM 2-mercaptoethanol. The THP-1 cells were seeded at 1×10^5 cells/100 μL/well into 96-well culture plates, and treated with lipopolysaccharide (1 μg/ml), and serially diluted compound was then added. After an 18-hour incubation period at 37° C., supernatants were collected for the determination of the TNF-α level by ELISA, and the remaining cells were subjected to an MTT assay to determine the cytotoxic effects.

The target in the next assay is K1T (Homo sapiens, UniProt P10721). Nature of the assay: Kinase inhibition assay: KIT. It is filed as biochemical.
Chain of K1T (P10721 26-976): as the sequence (P10721 26-976 D816V) above, with V791D counted along it

T1 sequence (P36888 27-993): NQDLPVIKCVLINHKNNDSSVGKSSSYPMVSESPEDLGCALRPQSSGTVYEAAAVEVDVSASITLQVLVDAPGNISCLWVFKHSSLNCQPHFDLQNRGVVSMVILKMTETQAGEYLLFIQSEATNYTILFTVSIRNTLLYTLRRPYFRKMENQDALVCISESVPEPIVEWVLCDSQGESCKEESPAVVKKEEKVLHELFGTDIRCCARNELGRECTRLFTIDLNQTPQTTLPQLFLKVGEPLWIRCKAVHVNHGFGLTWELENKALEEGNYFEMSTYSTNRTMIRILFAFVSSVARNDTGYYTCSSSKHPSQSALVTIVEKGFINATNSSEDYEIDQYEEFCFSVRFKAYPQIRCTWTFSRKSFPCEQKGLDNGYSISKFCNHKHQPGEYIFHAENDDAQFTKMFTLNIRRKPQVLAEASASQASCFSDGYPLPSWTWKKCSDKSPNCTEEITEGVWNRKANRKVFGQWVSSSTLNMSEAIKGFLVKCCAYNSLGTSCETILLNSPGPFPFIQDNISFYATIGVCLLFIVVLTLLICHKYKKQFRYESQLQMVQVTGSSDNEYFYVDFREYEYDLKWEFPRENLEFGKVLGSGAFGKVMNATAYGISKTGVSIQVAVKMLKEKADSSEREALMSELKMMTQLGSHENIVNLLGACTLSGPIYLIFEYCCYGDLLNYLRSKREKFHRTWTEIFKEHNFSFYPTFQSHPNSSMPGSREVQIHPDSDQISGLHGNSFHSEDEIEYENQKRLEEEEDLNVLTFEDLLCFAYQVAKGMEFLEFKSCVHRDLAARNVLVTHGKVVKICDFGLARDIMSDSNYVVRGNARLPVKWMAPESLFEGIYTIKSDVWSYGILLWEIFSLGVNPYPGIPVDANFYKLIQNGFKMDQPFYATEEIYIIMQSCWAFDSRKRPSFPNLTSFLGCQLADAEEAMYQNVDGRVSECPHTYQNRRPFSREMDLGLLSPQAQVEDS

Turning to `Cc1cc(C)cc(Nc2ncc(F)c(-n3cc(C)c(CN4CC[C@@H](O)C4)c3)n2)c1` [Compound 82, (R)-1-((1-(2-(3,5-dimethylphenyl-amino)-5-fluoropyrimidin-4-yl)-4-methyl-1H-pyrrol-3-yl)methyl) pyrrolidin-3-ol], the “% of control” value is given as 1.1% at FLT3 and 0.45% on KIT(D816V). At ZAP70, the “% of control ZAP70 binding (lower = stronger)” value turned out to be 34%. In addition, at ABL1(T315I), the “% of control ABL1(T315I)” value came to 35%. The “% of control binding” value on AURKB worked out at 31%. Besides, the inhibition at 0.3 µM in assay [1] (0.3 μM) was 18.1%. Testing at 1 µM in assay [1] (1 μM) gave an inhibition of 21.5%.
The compound `COc1cc(Nc2ncc(C)c(-n3cc(C)c(CO)c3)n2)cc(OC)c1OC` [Compound 21, (4-methyl-1-(5-methyl-2-(3,4,5-trimethoxyphenylamino)pyrimidin-4-yl)-1H-pyrrol-3-yl)methanol] displayed an IC50 on K1T of 137 nM.

These data come from patent US8629132B2, “Kinase inhibitors” (Genosco, priority 2009, dated 2014).
